Test results published in ChEMBL document CHEMBL1155947, “Discovery of a novel series of benzoic acid derivatives as potent and selective human beta3 adrenergic receptor agonists with good oral bioavailability. 3. Phenylethanolaminotetraline (PEAT) skeleton containing biphenyl or biphenyl ether moiety” (J Med Chem, 2008).
pEC50: −log10 of the molar value.

Key:
[1] = biological target: Beta-1 adrenergic receptor (Homo sapiens, UniProt P08588)
Description: Agonist activity at human cloned beta-1 adrenergic receptor expressed in CHO cells assessed as cAMP accumulation

[2] = biological target: Beta-3 adrenergic receptor (Homo sapiens, UniProt P13945); assay: Agonist activity at human cloned beta3 adrenergic receptor expressed in CHO cells assessed as cAMP accumulation; assay type: functional, cell-based
Homo sapiens = species on record: Homo sapiens; assay: Ratio of EC50 for human cloned beta-1 adrenergic receptor to EC50 for human cloned beta3 adrenergic receptor
[3] = biological target: Beta-2 adrenergic receptor (Homo sapiens, UniProt P07550); assay: Agonist activity at human beta2 adrenergic receptor expressed in CHO cells assessed as cAMP accumulation; assay type: functional, cell-based
[4] = Terminal half life in dog at 0.1 mg/mL, iv by cassette assay; assay type: ADME, organism-based, Canis lupus familiaris; conditions: in vivo
[5] = AUC (0 to 24 hrs) in dog at 0.2 mg/kg, po by cassette assay; assay type: ADME, organism-based, Canis lupus familiaris; parameters: time < 24 hr, dose 0.2 mg/kg, route oral; conditions: plasma
[6] = Cmax in dog at 0.2 mg/kg, po by cassette assay; assay type: ADME, organism-based, Canis lupus familiaris; parameters: dose 0.2 mg/kg, route oral; conditions: in vivo
[7] = Bioavailability in dog at 0.1 mg/mL, iv by cassette assay; assay type: ADME, organism-based, Canis lupus familiaris; conditions: in vivo
[8] = Total clearance in dog at 0.1 mg/mL, iv by cassette assay; assay type: ADME, organism-based, Canis lupus familiaris; conditions: in vivo
Canis familiaris [9] = assay: Ratio of AUC for drug to AUC for 4-((7S)-7-{[(2R)-2-(3-Chlorophenyl)-2-hydroxyethyl]amino}-5,6,7,8-tetrahydro-2-naphthalenyl)benzoic acid hydrochloride in dog at 0.1 or 0.20 mg/kg, po by cassette dosing assay; assay type: ADME, organism-based, Canis lupus familiaris; parameters: dose 0.2 mg/kg, route oral; conditions: in vivo, 0.2 mg/kg
Canis familiaris [10] = assay: Ratio of Cmax for drug to Cmax for 4-((7S)-7-{[(2R)-2-(3-Chlorophenyl)-2-hydroxyethyl]amino}-5,6,7,8-tetrahydro-2-naphthalenyl)benzoic acid hydrochloride in dog at 0.1 or 0.20 mg/kg, po by cassette dosing assay; assay type: ADME, organism-based, Canis lupus familiaris; parameters: dose 0.2 mg/kg, route oral; conditions: in vivo, 0.2 mg/kg
Canis familiaris [11] = assay: Ratio of AUC for drug to AUC for 3-[((7S)-7-{[(2R)-2-(3-Chlorophenyl)-2-hydroxyethyl]amino}-5,6,7,8-tetrahydro-2-naphthalenyl)oxy]benzoic acid hydrochloride in dog at 0.1 or 0.20 mg/kg, po by cassette dosing assay; assay type: ADME, organism-based, Canis lupus familiaris; parameters: dose 0.2 mg/kg, route oral; conditions: in vivo, 0.2 mg/kg
Canis familiaris [12] = assay: Ratio of Cmax for drug to Cmax for 3-[((7S)-7-{[(2R)-2-(3-Chlorophenyl)-2-hydroxyethyl]amino}-5,6,7,8-tetrahydro-2-naphthalenyl)oxy]benzoic acid hydrochloride in dog at 0.1 or 0.20 mg/kg, po by cassette dosing assay; assay type: ADME, organism-based, Canis lupus familiaris; parameters: dose 0.2 mg/kg, route oral; conditions: in vivo, 0.2 mg/kg
[13] = Cmax in dog at 0.32 mg/kg, po by cassette assay; assay type: ADME, organism-based, Canis lupus familiaris; parameters: dose 0.32 mg/kg, route oral; conditions: in vivo
[14] = AUC (0 to 24 hrs) in dog at 0.32 mg/kg, po by cassette assay; assay type: ADME, organism-based, Canis lupus familiaris; parameters: time < 24 hr, dose 0.32 mg/kg, route oral; conditions: plasma
[15] = Terminal half life in dog at 0.1 mg/kg, iv by cassette assay; assay type: ADME, organism-based, Canis lupus familiaris; parameters: dose 0.1 mg/kg, route intravenous; conditions: in vivo
[16] = Total clearance in dog at 0.1 mg/kg, iv by cassette assay; assay type: ADME, organism-based, Canis lupus familiaris; parameters: dose 0.1 mg/kg, route intravenous; conditions: in vivo
[17] = Oral bioavailability in dog at 0.1 mg/kg by cassette assay; assay type: ADME, organism-based, Canis lupus familiaris; conditions: in vivo

Chain of Beta-1 adrenergic receptor (P08588 whole entry): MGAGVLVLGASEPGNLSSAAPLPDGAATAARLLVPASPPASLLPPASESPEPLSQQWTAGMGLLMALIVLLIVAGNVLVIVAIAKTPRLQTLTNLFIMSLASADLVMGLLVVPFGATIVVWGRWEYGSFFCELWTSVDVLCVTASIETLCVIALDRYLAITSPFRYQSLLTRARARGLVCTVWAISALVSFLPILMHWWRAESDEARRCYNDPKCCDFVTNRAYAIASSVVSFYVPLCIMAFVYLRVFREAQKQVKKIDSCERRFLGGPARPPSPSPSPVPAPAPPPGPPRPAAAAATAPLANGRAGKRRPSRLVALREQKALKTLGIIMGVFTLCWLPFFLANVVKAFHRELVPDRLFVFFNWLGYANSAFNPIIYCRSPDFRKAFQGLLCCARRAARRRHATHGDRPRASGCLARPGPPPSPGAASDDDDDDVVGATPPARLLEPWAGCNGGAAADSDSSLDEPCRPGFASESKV
Chain of Beta-2 adrenergic receptor (P07550 whole entry): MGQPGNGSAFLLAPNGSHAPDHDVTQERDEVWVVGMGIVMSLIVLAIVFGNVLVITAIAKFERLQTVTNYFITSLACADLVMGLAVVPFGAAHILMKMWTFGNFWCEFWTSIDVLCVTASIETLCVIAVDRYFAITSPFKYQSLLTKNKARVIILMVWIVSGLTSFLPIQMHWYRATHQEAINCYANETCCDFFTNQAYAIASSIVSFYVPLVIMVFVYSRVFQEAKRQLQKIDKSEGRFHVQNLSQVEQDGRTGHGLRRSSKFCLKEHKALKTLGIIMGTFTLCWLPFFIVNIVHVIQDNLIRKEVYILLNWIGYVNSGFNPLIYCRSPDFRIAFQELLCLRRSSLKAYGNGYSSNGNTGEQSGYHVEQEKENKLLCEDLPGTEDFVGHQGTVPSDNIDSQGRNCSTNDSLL
Chain of Beta-3 adrenergic receptor (P13945 whole entry): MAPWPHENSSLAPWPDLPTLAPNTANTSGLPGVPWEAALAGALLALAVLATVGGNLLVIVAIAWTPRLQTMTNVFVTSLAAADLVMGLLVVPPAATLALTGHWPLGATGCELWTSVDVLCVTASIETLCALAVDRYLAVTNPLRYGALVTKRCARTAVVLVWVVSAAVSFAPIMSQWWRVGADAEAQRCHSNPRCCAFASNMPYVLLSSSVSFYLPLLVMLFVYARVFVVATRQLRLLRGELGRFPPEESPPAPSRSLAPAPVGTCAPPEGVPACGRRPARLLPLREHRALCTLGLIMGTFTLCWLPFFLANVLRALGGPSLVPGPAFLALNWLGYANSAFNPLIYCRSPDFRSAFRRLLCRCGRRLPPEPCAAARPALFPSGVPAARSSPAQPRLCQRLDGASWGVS

Compound	pEC50 [1]	pEC50 [2]	Ratio EC50 (Homo sapiens)	also measured
O=C(O)COc1ccc(-c2ccc3c(c2)C[C@@H](NC[C@H](O)c2cccc(Cl)c2)CC3)cc1	< 6.00	8.24	> 170	half-life [4]: 1.9 h; AUC(0-t) at 24 h [5]: 197 ng·h/mL; Cmax [6]: 21.8 ng/mL; bioavailability [7]: 48%; clearance [8]: 8.3 mL/min/kg; pEC50 [3]: < 6.00
COc1cc(-c2ccc3c(c2)C[C@@H](NC[C@H](O)c2ccc(Cl)cc2)CC3)ccc1C(=O)O	< 6.00	9.11	> 1280	Ratio AUC (Canis familiaris [9]): 0.53; Ratio (Canis familiaris [10]): 0.62
O=C(O)c1ccc(Oc2ccc3c(c2)C[C@@H](NC[C@H](O)c2cccc(Cl)c2)CC3)nc1	7.15	8.83	50	half-life [4]: 2.8 h; Cmax [13]: 49 ng/mL; AUC(0-t) at 24 h [14]: 320 ng·h/mL; bioavailability [7]: 61%; clearance [8]: 10.8 mL/min/kg; pEC50 [3]: < 6.00
O=C(O)c1cc(Oc2ccc3c(c2)C[C@@H](NC[C@H](O)c2cccc(Cl)c2)CC3)ccc1Cl	< 6.00	7.80	> 62	
O=C(O)c1ccc(-c2ccc3c(c2)C[C@@H](NC[C@H](O)c2cccc(Cl)c2)CC3)nc1	6.31	8.02	51	
O=C(O)c1cc(NC2CCCCC2)cc(Oc2ccc3c(c2)C[C@@H](NC[C@H](O)c2cccc(Cl)c2)CC3)c1	7.16	9.11	88	
O=C(O)c1ccc(Oc2ccc3c(c2)C[C@@H](NC[C@H](O)c2cccc(Cl)c2)CC3)s1	6.17	8.24	117	pEC50 [3]: < 6.00
O=C(O)c1ccc(-c2ccc3c(c2)C[C@@H](NC[C@H](O)c2ccc(Cl)c(Cl)c2)CC3)cc1	< 6.00	7.48	> 30	
O=C(O)c1ccc(-c2ccc3c(c2)C[C@@H](NC[C@H](O)c2cccc(Cl)c2)CC3)s1	< 6.00	8.62	> 417	
O=C(O)c1ccc(-c2ccc3c(c2)C[C@@H](NC[C@H](O)c2cccc(Cl)c2)CC3)cc1	< 6.00	8.55	> 357	Ratio AUC (Canis familiaris [9]): 1; half-life [4]: 12.2 h; AUC(0-t) at 24 h [5]: 1980 ng·h/mL; Cmax [6]: 97.4 ng/mL; bioavailability [7]: 71%; clearance [8]: 1.2 mL/min/kg; pEC50 [3]: < 6.00; Ratio (Canis familiaris [10]): 1
Cc1ccc(Oc2ccc3c(c2)C[C@@H](NC[C@H](O)c2cccc(Cl)c2)CC3)cc1C(=O)O	< 6.00	8.05	> 111	
CCCNc1cc(Oc2ccc3c(c2)C[C@@H](NC[C@H](O)c2cccc(Cl)c2)CC3)cc(C(=O)O)c1	6.76	9.11	224	
COc1ccc(Oc2ccc3c(c2)C[C@@H](NC[C@H](O)c2cccc(Cl)c2)CC3)cc1C(=O)O	< 6.00	8.22	> 166	pEC50 [3]: < 6.00
N#Cc1ccc([C@@H](O)CN[C@H]2CCc3ccc(-c4ccc(C(=O)O)cc4)cc3C2)cc1	< 6.00	7.55	> 36	
O=C(O)c1ccc(-c2ccc3c(c2)C[C@@H](NC[C@H](O)c2ccc(Cl)nc2)CC3)cc1	6.70	9.07	> 1260	Ratio AUC (Canis familiaris [9]): 0.53; pEC50 [3]: < 6.00; Ratio (Canis familiaris [10]): 0.73
O=C(O)c1cc(NC2CCOCC2)cc(Oc2ccc3c(c2)C[C@@H](NC[C@H](O)c2cccc(Cl)c2)CC3)c1	6.47	9.00	340	Ratio AUC (Canis familiaris [11]): 0.02; Ratio (Canis familiaris [12]): 0.06
CC(C)Oc1cc(-c2ccc3c(c2)C[C@@H](NC[C@H](O)c2ccc(Cl)cc2)CC3)ccc1C(=O)O	6.51	9.15	443	
O=C(O)c1cccc(Oc2ccc3c(c2)C[C@@H](NC[C@H](O)c2cccc(Cl)c2)CCC3)c1	6.80	8.35	35	half-life [4]: 3 h; Cmax [13]: 65.7 ng/mL; AUC(0-t) at 24 h [14]: 538 ng·h/mL; bioavailability [7]: 69%; clearance [8]: 6.8 mL/min/kg; pEC50 [3]: < 6.00
O=C(O)c1cccc(Oc2ccc3c(c2)C[C@@H](NC[C@H](O)c2ccc(Cl)nc2)CC3)c1	6.85	8.39	34	
Cc1ccc([C@@H](O)CN[C@H]2CCc3ccc(-c4ccc(C(=O)O)cc4)cc3C2)cc1	< 6.00	9.10	> 1260	Ratio AUC (Canis familiaris [9]): 0.77; Ratio (Canis familiaris [10]): 1.06
CN(C)c1cc(Oc2ccc3c(c2)C[C@@H](NC[C@H](O)c2cccc(Cl)c2)CC3)cc(C(=O)O)c1	< 6.00	8.49	> 312	half-life [15]: 3.94 h; clearance [16]: 2.38 mL/min/kg; Ratio AUC (Canis familiaris [11]): 0.83; AUC(0-t) at 24 h [5]: 1470 ng·h/mL; Cmax [6]: 189 ng/mL; pEC50 [3]: < 6.00; bioavailability [17]: > 95%; Ratio (Canis familiaris [12]): 1.18
O=C(O)c1ccc(-c2ccc3c(c2)C[C@@H](NC[C@H](O)c2cccnc2)CC3)cc1	< 6.00	7.89	> 77	
O=C(O)c1cccnc1Oc1ccc2c(c1)C[C@@H](NC[C@H](O)c1cccc(Cl)c1)CC2	< 7.00	7.31	> 2	
O=C(O)c1ccc(Oc2ccc3c(c2)C[C@@H](NC[C@H](O)c2cccc(Cl)c2)CC3)cc1	< 7.00	7.43	> 2.7	

Now from value to compound, other results behind:

pEC50 [1]	pEC50 [2]	Ratio EC50 (Homo sapiens)	Compound	also measured
< 7.00	< 7.00		O=C(O)c1ccc(-c2ccc3c(c2)C[C@@H](NC[C@H](O)c2cccc(Cl)c2)CCC3)cc1	
6.11	8.46	221	O=C(O)c1ccc(-c2ccc3c(c2)C[C@@H](NC[C@H](O)c2ccc(C(F)(F)F)cc2)CC3)cc1	pEC50 [3]: < 6.00
< 7.00	8.00	> 10	O=C(O)COc1cccc(-c2ccc3c(c2)C[C@@H](NC[C@H](O)c2cccc(Cl)c2)CC3)c1	
< 7.00	< 7.00		O=C(O)c1ccc(Oc2ccc3c(c2)C[C@@H](NC[C@H](O)c2cccc(Cl)c2)CCC3)cc1	
6.44	8.89	277	CC(=O)Nc1cc(Oc2ccc3c(c2)C[C@@H](NC[C@H](O)c2cccc(Cl)c2)CC3)cc(C(=O)O)c1	Ratio AUC (Canis familiaris [11]): 0.06; Ratio (Canis familiaris [12]): 0.1
< 7.00	7.70	> 5	O=C(O)c1cccc(Oc2ccc3c(c2)C[C@@H](NC[C@H](O)c2cccnc2)CC3)c1	Ratio AUC (Canis familiaris [11]): 0.32; Ratio (Canis familiaris [12]): 0.5
6.48	8.32	69	O=C(O)c1cccc(Oc2ccc3c(c2)C[C@@H](NC[C@H](O)c2ccc(Cl)cc2)CC3)c1	
6.57	8.74	155	CN(C)c1cc(Oc2ccc3c(c2)C[C@@H](NC[C@H](O)c2ccc(Cl)nc2)CC3)cc(C(=O)O)c1	
< 7.00	7.66	> 4.5	O=C(O)COc1cccc(Oc2ccc3c(c2)C[C@@H](NC[C@H](O)c2cccc(Cl)c2)CC3)c1	
6.32	8.49	150	Nc1cc(Oc2ccc3c(c2)C[C@@H](NC[C@H](O)c2cccc(Cl)c2)CC3)cc(C(=O)O)c1	Ratio AUC (Canis familiaris [11]): 0.2; Ratio (Canis familiaris [12]): 0.26
6.05	8.28	168	COc1cc(Oc2ccc3c(c2)C[C@@H](NC[C@H](O)c2cccc(Cl)c2)CC3)cc(C(=O)O)c1	pEC50 [3]: < 6.00
6.10	8.70	400	Cc1cc(C(=O)O)ccc1-c1ccc2c(c1)C[C@@H](NC[C@H](O)c1ccc(Cl)cc1)CC2	Ratio AUC (Canis familiaris [9]): 0.64; Ratio (Canis familiaris [10]): 0.72
6.08	8.74	458	Cc1cc(-c2ccc3c(c2)C[C@@H](NC[C@H](O)c2ccc(Cl)cc2)CC3)ccc1C(=O)O	
< 7.00	7.62	> 4.2	O=C(O)COc1ccc(Oc2ccc3c(c2)C[C@@H](NC[C@H](O)c2cccc(Cl)c2)CC3)cc1	
< 7.00	7.54	> 3.4	O=C(O)c1cccc(-c2ccc3c(c2)C[C@@H](NC[C@H](O)c2cccc(Cl)c2)CC3)c1	
6.21	7.42	16.3	O=C(O)c1ccc(-c2ccc3c(c2)C[C@@H](NC[C@H](O)c2ccccc2Cl)CC3)cc1	
6.19	9.09	802	O=C(O)c1ccc(-c2ccc3c(c2)C[C@@H](NC[C@H](O)c2ccc(Cl)cc2)CC3)cc1F	
6.01	8.85	700	O=C(O)c1ccc(-c2ccc3c(c2)C[C@@H](NC[C@H](O)c2ccc(Cl)cc2)CC3)c(F)c1	Ratio AUC (Canis familiaris [9]): 1.01; Ratio (Canis familiaris [10]): 1.13
